Source: paper PMC7164622, “Citrate lyase CitE in Mycobacterium tuberculosis contributes to mycobacterial survival under hypoxic conditions” (PLoS ONE, 2020)

What was measured:
[1] = target: T1, MtbCitE (CitE) (Mycobacterium tuberculosis, UniProt P9WPE1)
[2] = target: T1, MtbCitE (CitE); remark: listed apart in the source
[3] = target: the molecule itself; test: cross-linking; chemical cross-linking with 4 μM disuccinimidyl suberate (DSS), 10 mM CitE protein (so in the source), 100 mM NaH2PO4 pH 8.0, 150 mM NaCl, room temperature, half an hour, then SDS-PAGE

## Nc1ncnc2c1ncn2[C@@H]1O[C@H](COP(=O)(O)OP(=O)(O)OP(=O)(O)O)[C@@H](O)[C@H]1O [ATP]
[1]
  activity with 0-1.5 mM ATP: the citrate cleavage activity of MtbCitE was inhibited by ATP

## O=C(O)CC(O)(CC(=O)O)C(=O)O [citrate]
[2]
  citrate cleavage activity: we predicted that purified MtbCitE had citrate lyase activity

B1: Mycobacterium tuberculosis CitE (MtbCitE), citrate lyase (enzyme)
chain: MNLRAAGPGWLFCPADRPERFAKAAAAADVVILDLEDGVAEAQKPAARNALRDTPLDPERTVVRINAGGTADQARDLEALAGTAYTTVMLPKAESAAQVIELAPRDVIALVETARGAVCAAEIAAADPTVGMMWGAEDLIATLGGSSSRRADGAYRDVARHVRSTILLAASAFGRLALDAVHLDILDVEGLQEEARDAAAVGFDVTVCIHPSQIPVVRKAYRPSHEKLAWARRVLAASRSERGAFAFEGQMVDSPVLTHAETMLRRAGEATSE
notes: also called Rv2498c; citrate lyase β-subunit
[3]
  stoichiometry N: 3
